Patent US20030236306A1, “Stabilized formulations of alpha adrenergic receptor antagonists and the uses thereof” (priority 2002, published 2003)

Experiments:
[1] = test system: anesthesia by lignocaine admixed with epinephrine; conditions: 0.5-1.5 mg, Example 1, Table 1 of the '714 patent; cited from earlier work
[2] = Narrow-range pH-stability profiling at 60° C.; type: physicochemical
Description: (§1) The drug is monitored at a detection wavelength of 232 nm.
All samples were stored in the dark.
The phosphate buffers were prepared as previously described. […] Measurement of sample pH was done after HPLC analysis.
In order to precisely define the most favorable pH, a stronger stressing condition was needed to generate a greater extent of degradation in the lower pH region. For this study, the incubation condition was shifted from 40° C. to 60° C. […] Since the extent of degradation after fourteen (14) days was still less than twenty percent (20%) in most samples, zero-order rate kinetics was used for the degradation curves (concentration versus time). The calculated rate constant was plotted against pH to provide the narrow-range pH-stability profile.

[3] = Effect of buffer anion on stability, pH 3, 60° C.; type: physicochemical
Description: as §1
Tightly sealed glass vials containing the test solutions were placed in an oven at 40° C. or 60° C. All samples were stored in the dark. Aliquots were removed at designated time points for HPLC analysis and pH measurement.
The test buffers included 50 mM sodium phosphate, 50 mM sodium acetate, 50 mM sodium lactate, 50 mM sodium citrate, and 50 mM sodium succinate buffers at pH 3.
The phosphate and acetate buffers were prepared as described above. The citrate buffer was prepared by adding 9.60 g of citric acid to water, adjusting the pH with 2 N NaOH to pH 3, and bringing the volume to 1 L in a volumetric flask. The lactate buffer was prepared by adding 2.25 g of lactic acid to water, adjusting the pH with 2 N NaOH to pH 3, and bringing the volume to 1L in a volumetric flask. The succinate buffer was prepared by adding 2.95 g succinic acid to water, adjusting the pH with 2 N NaOH to pH 3, and bringing the volume to 1 L in a volumetric flask.
Measurements of sample pH were done after HPLC analysis.

[4] = Sodium Phosphate Buffer pH 2.0, 60° C., Day 0
[5] = Sodium Phosphate Buffer pH 2.0, 60° C., Day 2
[6] = Sodium Phosphate Buffer pH 2.0, 60° C., Day 7
[7] = Sodium Phosphate Buffer pH 2.0, 60° C., Day 14
[8] = Sodium Phosphate Buffer pH 2.5, 60° C., Day 0
[9] = Sodium Phosphate Buffer pH 2.5, 60° C., Day 2
[10] = Sodium Phosphate Buffer pH 2.5, 60° C., Day 7
[11] = Sodium Phosphate Buffer pH 2.5, 60° C., Day 14
[12] = Sodium Phosphate Buffer pH 3.0, 60° C., Day 0
[13] = Sodium Phosphate Buffer pH 3.0, 60° C., Day 2
[14] = Sodium Phosphate Buffer pH 3.0, 60° C., Day 7
[15] = Sodium Phosphate Buffer pH 3.0, 60° C., Day 14
[16] = Sodium Phosphate Buffer pH 3.4, 60° C., Day 0
[17] = Sodium Phosphate Buffer pH 3.4, 60° C., Day 2
[18] = Sodium Phosphate Buffer pH 3.4, 60° C., Day 7
[19] = Sodium Phosphate Buffer pH 3.4, 60° C., Day 14
[20] = Sodium Phosphate Buffer pH 4.0, 60° C., Day 0
[21] = Sodium Phosphate Buffer pH 4.0, 60° C., Day 2
[22] = Sodium Phosphate Buffer pH 4.0, 60° C., Day 7
[23] = Sodium Phosphate Buffer pH 4.0, 60° C., Day 14
[24] = 50 mM Acetate (sodium salt) pH 3.0, 60° C., Day 0
[25] = 50 mM Acetate (sodium salt) pH 3.0, 60° C., Day 2
[26] = 50 mM Acetate (sodium salt) pH 3.0, 60° C., Day 7
[27] = 50 mM Acetate (sodium salt) pH 3.0, 60° C., Day 14
[28] = 50 mM Phosphate (sodium salt) pH 3.0, 60° C., Day 0
[29] = 50 mM Phosphate (sodium salt) pH 3.0, 60° C., Day 2
[30] = 50 mM Phosphate (sodium salt) pH 3.0, 60° C., Day 7
[31] = 50 mM Phosphate (sodium salt) pH 3.0, 60° C., Day 14

pH at which most stable ([2]; 50 mM sodium phosphate, 60° C., FIG. 2): 3.5 | Phentolamine Concentration [2, 4]: 98 µg/mL | Phentolamine Purity [2, 4]: 100 % peak area | Phentolamine Concentration [2, 5]: 98 µg/mL | Phentolamine Purity [2, 5]: 99 % peak area | Phentolamine Concentration [2, 6]: 93 µg/mL | Phentolamine Purity [2, 6]: 96 % peak area | Phentolamine Concentration [2, 7]: 81 µg/mL | Phentolamine Purity [2, 7]: 92 % peak area | Phentolamine Concentration [2, 8]: 99 µg/mL | Phentolamine Purity [2, 8]: 99 % peak area | Phentolamine Concentration [2, 9]: 96 µg/mL | Phentolamine Purity [2, 9]: 97 % peak area | Phentolamine Concentration [2, 10]: 78 µg/mL | Phentolamine Purity [2, 10]: 92 % peak area | Phentolamine Concentration [2, 11]: 79 µg/mL | Phentolamine Purity [2, 11]: 86 % peak area | Phentolamine Concentration [2, 12]: 96 µg/mL | Phentolamine Purity [2, 12]: 99 % peak area | Phentolamine Concentration [2, 13]: 93 µg/mL | Phentolamine Purity [2, 13]: 97 % peak area | Phentolamine Concentration [2, 14]: 91 µg/mL | Phentolamine Purity [2, 14]: 95 % peak area | Phentolamine Concentration [2, 15]: 84 µg/mL | Phentolamine Purity [2, 15]: 91 % peak area | Phentolamine Concentration [2, 16]: 97 µg/mL | Phentolamine Purity [2, 16]: 99 % peak area | Phentolamine Concentration [2, 17]: 95 µg/mL | Phentolamine Purity [2, 17]: 98 % peak area | Phentolamine Concentration [2, 18]: 96 µg/mL | Phentolamine Purity [2, 18]: 97 % peak area | Phentolamine Concentration [2, 19]: 91 µg/mL | Phentolamine Purity [2, 19]: 94 % peak area | Phentolamine Concentration [2, 20]: 97 µg/mL | Phentolamine Purity [2, 20]: 99 % peak area | Phentolamine Concentration [2, 21]: 95 µg/mL | Phentolamine Purity [2, 21]: 98 % peak area | Phentolamine Concentration [2, 22]: 94 µg/mL | Phentolamine Purity [2, 22]: 97 % peak area | Phentolamine Concentration [2, 23]: 89 µg/mL | Phentolamine Purity [2, 23]: 96 % peak area | Phentolamine Concentration [3, 24]: 96 µg/mL | Phentolamine Purity [3, 24]: 100 % peak area | Phentolamine Concentration [3, 25]: 95 µg/mL | Phentolamine Purity [3, 25]: 98 % peak area | Phentolamine Concentration [3, 26]: 94 µg/mL | Phentolamine Purity [3, 26]: 97 % peak area | Phentolamine Concentration [3, 27]: 89 µg/mL | Phentolamine Purity [3, 27]: 96 % peak area | Phentolamine Concentration ([3]; 50 mM Citrate (sodium salt) pH 3.0, 60° C., Day 0): 93 µg/mL | Phentolamine Concentration ([3]; 50 mM Citrate (sodium salt) pH 3.0, 60° C., Day 2): 87 µg/mL | Phentolamine Concentration ([3]; 50 mM Citrate (sodium salt) pH 3.0, 60° C., Day 7): 73 µg/mL | Phentolamine Concentration ([3]; 50 mM Citrate (sodium salt) pH 3.0, 60° C., Day 14): 62 µg/mL | Phentolamine Concentration ([3]; 50 mM Lactate (sodium salt) pH 3.0, 60° C., Day 0): 97 µg/mL | Phentolamine Concentration ([3]; 50 mM Lactate (sodium salt) pH 3.0, 60° C., Day 2): 94 µg/mL | Phentolamine Concentration ([3]; 50 mM Lactate (sodium salt) pH 3.0, 60° C., Day 7): 91 µg/mL | Phentolamine Concentration ([3]; 50 mM Lactate (sodium salt) pH 3.0, 60° C., Day 14): 83 µg/mL | Phentolamine Concentration [3, 28]: 96 µg/mL | Phentolamine Purity [3, 28]: 99 % peak area | Phentolamine Concentration [3, 29]: 93 µg/mL | Phentolamine Purity [3, 29]: 97 % peak area | Phentolamine Concentration [3, 30]: 91 µg/mL | Phentolamine Purity [3, 30]: 95 % peak area | Phentolamine Concentration [3, 31]: 84 µg/mL | Phentolamine Purity [3, 31]: 91 % peak area | Phentolamine Concentration ([3]; 50 mM Succinate (sodium salt) pH 3.0, 60° C., Day 0): 96 µg/mL | Phentolamine Concentration ([3]; 50 mM Succinate (sodium salt) pH 3.0, 60° C., Day 2): 88 µg/mL | Phentolamine Concentration ([3]; 50 mM Succinate (sodium salt) pH 3.0, 60° C., Day 7): 74 µg/mL | Phentolamine Concentration ([3]; 50 mM Succinate (sodium salt) pH 3.0, 60° C., Day 14): 64 µg/mL
Compound: Cc1ccc(N(CC2=NCCN2)c2cccc(O)c2)cc1 [Phentolamine, phentolamine]
duration of anesthesia [1]: reduction in the duration of anesthesia with increasing amounts | rank of buffer preference based on amount of phentolamine recovered at the end of the study ([3]; pH 3, 60° C., 14 days): sodium acetate>no buffer (water with pH adjusted to pH 3)>sodium phosphate>sodium lactate>sodium succinate>sodium citrate
